Results: patent US4950686A, “Anti-mycoplasma agent” (Shionogi & Co., Ltd., priority 1986, dated 1990)
Values after ≈ are worked out from the molar mass of the structure shown. Counter-ions that a name gives are not always drawn. Like-named read-outs stand apart in the source and are kept apart here.

Tests used:
[1] = Acute toxicity test in chickens; type: in vivo, SPF chickens of layer type; settings: 400 mg/kg or 200 mg/kg once oral, 2 weeks; for increase of weight: vs control group
Experimental: Acute toxicity tests on tropolone L-lysine salt and O-acetyltropolone were performed according to the following method.
The tests had been done on 15 days old SPF chickens of layer type (5 males and 5 females) for 2 weeks. The above two compounds suspended in 5% gum arabic are orally and forcibly administered once at a dose of 400 mg/kg or 200 mg/kg. To a control group is administered 5% gum arabic.

[2] = tested on: Mycoplasma gallisepticum S6 (standard strain); assay: Anti-mycoplasma activity in vitro (MIC, broth dilution), strain S6; type: cell-based; settings: Mg S6, 37° C., 7 days
Experimental: (§1) (1) Anti-mycoplasma activity test in vitro
(§2) MIC values of each of Tropolones were measured on the following strains according to the following method.
(§3) (a) Mycoplasma gallisepticum
(§4) Medium: Chick PPLO broth supplemented with 20% equine serum (Eiken Kagaku Co., Ltd.)
(§5) Method: Broth dilution method
(§6) Inoculum: Culture incubated at 37° C. for 24-48 hr which is diluted with broth to 10^6 CCU/ml immediately before the use.
(§7) To 1.6 ml of the broth is added 0.2 ml of an agent which has been subjected to 2-fold dilution and then added 0.2 ml of inoculum, which is incubated at 37° C. for 7 days.

[3] = tested on: Mycoplasma hyopneumoniae ST-11 (standard strain); assay: Anti-mycoplasma activity in vitro (MIC, broth dilution), strain ST-11; type: cell-based; settings: Mh ST-11
Experimental: as §1, §2
(b) Mycoplasma hyopneumoniae
Strain: ST-11 (standard strain)
Medium: 850 ml of Hanks' solution supplemented with 0.5% lactoalbumin, 50 ml of 25% yeast, 100 ml of equine serum and 4-6 ml of 0.5% phenol red (pH 7.4-7.6)
as §5
Inoculum: Culture which is incubated for 3-4 days and diluted 10 times with the broth if color of the broth becomes yellow then. If it needs over 4 days until color of the broth becomes yellow, it is further subcultured. This is diluted 10 times with the broth to give inoculum.
Assay is done in the same manner as in the above (a).

[4] = tested on: Mycoplasma gallisepticum MR-1 (wild strain, tylosin-resistant); assay: Anti-mycoplasma activity in vitro (MIC, broth dilution), strain MR-1; type: cell-based; settings: Mg MR-1, 37° C., 7 days
Experimental: as §1, §2, §3
MR-1 (wild strain, tylosin-resistant)
as §4, §5, §6, §7

[5] = tested on: Mycoplasma gallisepticum S6 (standard strain); assay: Mycoplasma gallisepticum air-sac infection method in chicken, strain S6; type: in vivo, Mycoplasma gallisepticum; SPF chicken (white leghorn)
Experimental: (§8) (2) Test of Effectiveness Mycoplasma gallisepticum air-sac infection method
(§9) Inoculation: To the right air-sac of 9 days old SPF chicken (a white leghorn) which has abstained from water and feed one day before is inoculated 0.20-0.25 ml/chicken of fresh mycoplasma culture incubated for 24-48 hr and diluted with broth (usually 100 times). The concentration in Table 2 is shown in a unit of mg/ml.
(§10) Medium: Chick PPLO broth supplemented with 15% equine serum (Eiken Kagaku Co., Ltd.)
(§11) Administration: A compound of this invention dissolved or suspended in the following solution is orally and forcibly administered once by a cannula immediately after the infection.
(§12) Anatomization and Isolation of Microorganism: The chickens are anatomized 5 days after the infection, and the right and left air sacs are investigated whether they are attacked with a disease or not. The change caused by the disease is represented in four degrees; -: no change, +: slight, ++: medium and +++: serious. Microorganism is isolated from the right and left air-sacs and the trachea by using a sterilized applicator.
(§13) Judgement: Judgement is done through an index of an air-sac disease and an index of a microorganism-isolation.
(§14) Index of an air-sac-disease: First, indexes in the right and left air-sacs are separately calculated according to the following formula;
(§15) {degree of disease (0-3)×chickens}/anatomized chickens
(§16) and the index is calculated by the following formula;
(§17) (index of right air-sac)×1+(index of left air-sac)×2
(§18) Index of a microorganism isolation:
(§19) P: chickens from the right air-sac of which microorganism is isolated,
(§20) Q: chickens from the trachea of which microorganism is isolated,
(§21) R: chickens from the left air-sac of which microorganism is isolated, and
(§22) S: chickens investigated.

[6] = tested on: Mycoplasma gallisepticum T-7-T (wild strain, tylosin-resistant); assay: Mycoplasma gallisepticum air-sac infection method in chicken, strain T-7-T;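 for Index of Isolation: index = (P×1 + Q×2 + R×3)/S with range 0 to 6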; type: in vivo, Mycoplasma gallisepticum; SPF chicken (white leghorn); settings: 100 mg/kg × once oral, 10 mg/ml sol. b; for Change of air-sac, left: + (chickens) / Change of air-sac, left: ++ (chickens) / Change of air-sac, left: +++ (chickens) / Change of air-sac, left: - (chickens) / Change of air-sac, right: + (chickens) / Change of air-sac, right: ++ (chickens) / Change of air-sac, right: +++ (chickens) / Change of air-sac, right: - (chickens) / Isolation, L (left air-sac) / Isolation, R (right air-sac) / Isolation, T (trachea) / Mycoplasma Isolated Chickens: inoculum 10^2; for Index of Isolation: inoculum 10^2, range 0-6.0; for Index of Disease: inoculum 10^2, range 0-9.0
Experimental: as §8
(§23) T-7-T (wild strain, tylosin-resistant)
as §9, §10, §11, §12, §13, §14, §15, §16, §17, §18, §19, §20, §21, §22

[7] = tested on: Mycoplasma gallisepticum T-7-T (wild strain, tylosin-resistant); assay: Anti-mycoplasma activity in vitro (MIC, broth dilution), strain T-7-T; type: cell-based; settings: Mg T-7-T, 37° C., 7 days
Experimental: as §1, §2, §3, §23, §4, §5, §6, §7

[8] = 100 mg/kg × once oral, 10 mg/ml sol. b, inoculum 1.2 × 10^6
[9] = 100 mg/kg × once oral, 10 mg/ml sol. b, inoculum 1.2 × 10^6, range 0-6.0
[10] = 100 mg/kg × once oral, 10 mg/ml sol. b, inoculum 1.2 × 10^6, range 0-9.0
[11] = 200 mg/kg × once oral, 20 mg/ml sol. b, inoculum 1.18 × 10^6
[12] = Mycoplasmoides gallisepticum, 168 h, read-out: MIC
[13] = 200 mg/kg × once oral, 20 mg/ml sol. c, inoculum 6.3 × 10^4

SMILES: O=c1cccccc1O [Compound 11, Tropolone L-lysine salt]
- deaths [1]: none of chickens died
- increase of weight [1]: equal to the control group
- MIC [2]: 0.39 µg/mL
- MIC [3]: 0.78 µg/mL
- MIC [4]: 0.78 µg/mL
- Change of air-sac, left: + (chickens) [5, 8]: 0
- Change of air-sac, left: ++ (chickens) [5, 8]: 0
- Change of air-sac, left: +++ (chickens) [5, 8]: 0
- Change of air-sac, left: - (chickens) [5, 8]: 8
- Change of air-sac, right: + (chickens) [5, 8]: 0
- Change of air-sac, right: ++ (chickens) [5, 8]: 0
- Change of air-sac, right: +++ (chickens) [5, 8]: 0
- Change of air-sac, right: - (chickens) [5, 8]: 8
- Isolation, L (left air-sac) [5, 8]: 2
- Isolation, R (right air-sac) [5, 8]: 0
- Isolation, T (trachea) [5, 8]: 1
- Mycoplasma Isolated Chickens [5, 8]: 2
- Index of Isolation [5, 9]: 0.54
- Index of Disease [5, 10]: 0
- Change of air-sac, left: + (chickens) [5, 11]: 0
- Change of air-sac, left: ++ (chickens) [5, 11]: 0
- Change of air-sac, left: +++ (chickens) [5, 11]: 0
- Change of air-sac, left: - (chickens) [5, 11]: 5
- Change of air-sac, right: + (chickens) [5, 11]: 0
- Change of air-sac, right: ++ (chickens) [5, 11]: 0
- Change of air-sac, right: +++ (chickens) [5, 11]: 0
- Change of air-sac, right: - (chickens) [5, 11]: 5
- Isolation, L (left air-sac) [5, 11]: 0
- Isolation, R (right air-sac) [5, 11]: 4
- Isolation, T (trachea) [5, 11]: 0
- Mycoplasma Isolated Chickens [5, 11]: 4
- Index of Isolation ([5]; 200 mg/kg × once oral, 20 mg/ml sol. b, inoculum 1.18 × 10^6, range 0-6.0): 0.8
- Index of Disease ([5]; 200 mg/kg × once oral, 20 mg/ml sol. b, inoculum 1.18 × 10^6, range 0-9.0): 0
- Change of air-sac, left: + (chickens) [6]: 0
- Change of air-sac, left: ++ (chickens) [6]: 0
- Change of air-sac, left: +++ (chickens) [6]: 0
- Change of air-sac, left: - (chickens) [6]: 8
- Change of air-sac, right: + (chickens) [6]: 0
- Change of air-sac, right: ++ (chickens) [6]: 0
- Change of air-sac, right: +++ (chickens) [6]: 0
- Change of air-sac, right: - (chickens) [6]: 8
- Isolation, L (left air-sac) [6]: 1
- Isolation, R (right air-sac) [6]: 4
- Isolation, T (trachea) [6]: 5
- Mycoplasma Isolated Chickens [6]: 5
- Index of Isolation [6]: 2.90
- Index of Disease [6]: 0
- MIC [7]: 0.78 µg/mL

SMILES: CC(=O)Oc1cccccc1=O [Compound 13, O-Acetyltropolone]
- deaths [1]: none of chickens died
- increase of weight [1]: a little inferior to the control-group
- MIC [2, 12]: 0.39 µg/mL (≈ 2.38 µM)
- MIC [4, 12]: 0.78 µg/mL (≈ 4.75 µM)
- Change of air-sac, left: + (chickens) [5, 8]: 0
- Change of air-sac, left: ++ (chickens) [5, 8]: 0
- Change of air-sac, left: +++ (chickens) [5, 8]: 0
- Change of air-sac, left: - (chickens) [5, 8]: 8
- Change of air-sac, right: + (chickens) [5, 8]: 1
- Change of air-sac, right: ++ (chickens) [5, 8]: 0
- Change of air-sac, right: +++ (chickens) [5, 8]: 0
- Change of air-sac, right: - (chickens) [5, 8]: 7
- Isolation, L (left air-sac) [5, 8]: 2
- Isolation, R (right air-sac) [5, 8]: 2
- Isolation, T (trachea) [5, 8]: 3
- Mycoplasma Isolated Chickens [5, 8]: 3
- Index of Isolation [5, 9]: 1.75
- Index of Disease [5, 10]: 0.1
- Change of air-sac, left: + (chickens) [5, 13]: 0
- Change of air-sac, left: ++ (chickens) [5, 13]: 0
- Change of air-sac, left: +++ (chickens) [5, 13]: 0
- Change of air-sac, left: - (chickens) [5, 13]: 5
- Change of air-sac, right: + (chickens) [5, 13]: 0
- Change of air-sac, right: ++ (chickens) [5, 13]: 0
- Change of air-sac, right: +++ (chickens) [5, 13]: 0
- Change of air-sac, right: - (chickens) [5, 13]: 5
- Isolation, L (left air-sac) [5, 13]: 0
- Isolation, R (right air-sac) [5, 13]: 0
- Mycoplasma Isolated Chickens [5, 13]: 0
- Index of Disease ([5]; 200 mg/kg × once oral, 20 mg/ml sol. c, inoculum 6.3 × 10^4, range 0-9.0): 0
- Index of Isolation ([5]; 200 mg/kg × once oral, 20 mg/ml sol. c, inoculum 6.3 × 10^4, trachea ND, range 0-6.0): 0
- Change of air-sac, left: + (chickens) [6]: 0
- Change of air-sac, left: ++ (chickens) [6]: 0
- Change of air-sac, left: +++ (chickens) [6]: 0
- Change of air-sac, left: - (chickens) [6]: 8
- Change of air-sac, right: + (chickens) [6]: 0
- Change of air-sac, right: ++ (chickens) [6]: 0
- Change of air-sac, right: +++ (chickens) [6]: 0
- Change of air-sac, right: - (chickens) [6]: 8
- Isolation, L (left air-sac) [6]: 1
- Isolation, R (right air-sac) [6]: 1
- Isolation, T (trachea) [6]: 2
- Mycoplasma Isolated Chickens [6]: 2
- Index of Isolation [6]: 0.90
- Index of Disease [6]: 0
- MIC [7, 12]: 0.78 µg/mL (≈ 4.75 µM)

SMILES: O=c1c(O)ccccc1Br [Compound 24, 7-Bromotropolone]
- MIC [2, 12]: 0.39 µg/mL (≈ 1.94 µM)
- MIC ([3]; Mesomycoplasma hyopneumoniae, read-out: MIC): 0.2 µg/mL (≈ 0.995 µM)
- MIC [4, 12]: 1.56 µg/mL (≈ 7.76 µM)
- Change of air-sac, left: + (chickens) [5, 8]: 0
- Change of air-sac, left: ++ (chickens) [5, 8]: 0
- Change of air-sac, left: +++ (chickens) [5, 8]: 0
- Change of air-sac, left: - (chickens) [5, 8]: 8
- Change of air-sac, right: + (chickens) [5, 8]: 0
- Change of air-sac, right: ++ (chickens) [5, 8]: 0
- Change of air-sac, right: +++ (chickens) [5, 8]: 0
- Change of air-sac, right: - (chickens) [5, 8]: 8
- Isolation, L (left air-sac) [5, 8]: 4
- Isolation, R (right air-sac) [5, 8]: 1
- Isolation, T (trachea) [5, 8]: 7
- Mycoplasma Isolated Chickens [5, 8]: 7
- Index of Isolation [5, 9]: 2.70
- Index of Disease [5, 10]: 0
- Change of air-sac, left: + (chickens) [6]: 0
- Change of air-sac, left: ++ (chickens) [6]: 0
- Change of air-sac, left: +++ (chickens) [6]: 0
- Change of air-sac, left: - (chickens) [6]: 8
- Change of air-sac, right: + (chickens) [6]: 0
- Change of air-sac, right: ++ (chickens) [6]: 0
- Change of air-sac, right: +++ (chickens) [6]: 0
- Change of air-sac, right: - (chickens) [6]: 8
- Isolation, L (left air-sac) [6]: 3
- Isolation, R (right air-sac) [6]: 3
- Isolation, T (trachea) [6]: 5
- Mycoplasma Isolated Chickens [6]: 5
- Index of Isolation [6]: 2.80
- Index of Disease [6]: 0
- MIC [7, 12]: 0.78 µg/mL (≈ 3.88 µM)
